{"source": "patent US11266715B2", "about": "“C3A receptor agonists for use against ischemic brain injury, stroke, traumatic brain injury, spinal cord injury and neurodegenerative disorders” (priority 2016, dated 2022)", "key": {"[1]": {"system": "WT mice subjected to photothrombotic stroke in the motor cortex", "test": "Infarct volume after photothrombotic stroke, intranasal treatment", "assay_type": "in vivo, mouse", "details": "intranasal C3a daily days 7-21 post-stroke vs PBS; P=0.429", "description": "Cortical photothrombosis was induced using the Rose Bengal method (Lee et al., 2007; Watson et al., 1985) with some modifications. Anesthesia was induced with isoflurane (Forene®, Abbott) in air and oxygen (1:1) initially at 5% and reduced to 2.5% during the surgical procedure. Body temperature was monitored by a rectal probe and maintained at 37° C. using a homeothermic control unit (Harvard Apparatus). Anesthetized mice were placed in a stereotaxic frame, the skull was exposed through a midline scalp incision and Rose Bengal (200 μl, 10 mg/ml solution in sterile saline, Sigma) was injected intraperitoneally. […] Mice were provided with moist mashed food placed on the floor of the home cage and their weight was monitored daily for 7 days after surgery. […]\nPurified human C3a peptide (Complement Technologies) was diluted in sterile phosphate buffered saline (PBS) to a concentration of 200 nM and a total of 20 μl (10 μl/nostril; corresponding to approximately 1.13 μg/kg body weight) of peptide solution or PBS was given intranasally to awake, hand-restrained mice held in a supine position. […] For the assessment of potential systemic anaphylactic response due to intranasal C3a inoculation, body temperature was monitored using a rectal temperature probe (Harvard Apparatus) inserted approximately 4 mm into the rectum of awake mice restrained by the scruff. […]"}, "[2]": {"system": "WT mice subjected to photothrombotic stroke in the motor cortex", "test": "Cylinder test (spontaneous forelimb asymmetry) after photothrombotic stroke", "assay_type": "in vivo, mouse", "description": "Cortical photothrombosis was induced using the Rose Bengal method (Lee et al., 2007; Watson et al., 1985) with some modifications. Anesthesia was induced with isoflurane (Forene®, Abbott) in air and oxygen (1:1) initially at 5% and reduced to 2.5% during the surgical procedure. Body temperature was monitored by a rectal probe and maintained at 37° C. using a homeothermic control unit (Harvard Apparatus). Anesthetized mice were placed in a stereotaxic frame, the skull was exposed through a midline scalp incision and Rose Bengal (200 μl, 10 mg/ml solution in sterile saline, Sigma) was injected intraperitoneally. After 5 min, the skull and underlying brain tissue were illuminated for 12 min by a 2 mm diameter cold laser beam (50 mW, 561 nm; Cobolt AB) positioned at AP +0.5 mm and ML −2.7 mm relative to Bregma, targeting the border between left primary somatosensory and motor cortex (Porritt et al., 2012). For intervention experiments targeting motor cortex, stroke was induced as above with the following modifications: Transcranial illumination lasting 15 min was delivered using cold light source (LQ1600, Fiberoptic-Heim AG) equipped with 2 mm wide fiber optic probe and directed to AP +0 and ML −1.5 relative to Bregma. After illumination, the scalp was sutured and mice were placed in a warm cage for 45 min to recover from anesthesia prior to being returned to the home cage. Mice were provided with moist mashed food placed on the floor of the home cage and their weight was monitored daily for 7 days after surgery. There were no significant differences in body weight, body temperature (36.5±0.5° C.), duration of surgery, or post-stroke mortality between cohorts. Each cohort contained an even distribution of mice from the matched strains or treatment groups.\nPurified human C3a peptide (Complement Technologies) was diluted in sterile phosphate buffered saline (PBS) to a concentration of 200 nM and a total of 20 μl (10 μl/nostril; corresponding to approximately 1.13 μg/kg body weight) of peptide solution or PBS was given intranasally to awake, hand-restrained mice held in a supine position. Solutions were administered through a pipette tip, drop-wise in 5 μl portions divided by 1 min intervals to allow for absorption. C3a or PBS was given every 24 hours on days 7 to 21 post-stroke for the short-term study or on days 7 to 28 post-stroke for the long-term study. Mice were assigned to C3a or PBS treatment using randomization stratified by body weight to avoid potential confounding effects of body weight on behavioural performance. The investigators carrying out behavioural studies and analysing data were blinded to treatment group. For the assessment of potential systemic anaphylactic response due to intranasal C3a inoculation, body temperature was monitored using a rectal temperature probe (Harvard Apparatus) inserted approximately 4 mm into the rectum of awake mice restrained by the scruff. Baseline temperature was taken before intranasal administration and 5, 15, 30, 45 and 75 min after C3a or PBS administration.\nFunctional impairment of mice treated intranasally with C3a or vehicle was assessed using a modified cylinder test and a grid walking task to closely evaluate forepaw function. Mice were tested once on each task one week before stroke induction to establish baseline performance. Next, they were tested on days 7, 14 and 21 (short-term study) or days 7, 14, 28, 42 and 56 (long-term study) post-stroke. […]"}, "[3]": {"system": "mice subjected to neonatal HI injury", "test": "Histomorphologic evaluation of hippocampus volume after neonatal HI", "assay_type": "in vivo, mouse", "details": "WT or C3aR−/− mice, regardless of treatment length, P51-55", "description": "On P51 (long-term study) or P55 (short-term study), mice were deeply anesthetized with thiopental [Pentothal Sodium (0.01 ml/g body weight), Hospira, Ill., USA)] and transcardially perfused with 0.9% saline, followed by 4% paraformaldehyde (PFA) in 0.1 M PBS. Brains were removed and post-fixed in 4% PFA at 4° C. for 24 h followed by 70% ethanol for 24 h. Tissue was processed using an automatic tissue processor (SAKURA Tissue Tek VIP 3000, Tournai, Belgium) and embedded in paraffin. Brains were cut at room temperature into 8-μm serial coronal sections using a sliding microtome (Microm HM 450, Thermo Scientific, Massachusetts, USA), attached to silane coated slides and dried at RT.\nFor the histomorphologic evaluation, slides were incubated for 1 h at 65° C. and stained with haematoxylin and eosin. A wide-field microscope (Nikon Eclipse 80i; Nikon Instruments Inc., Tokyo, Japan) equipped with a color camera (Nikon DXM 1200F) was used to obtain images of brain sections 208 μm apart between −1.60 mm and −2.02 mm relative to Bregma; 3 sections/mouse. ImageJ 1.46r software was used to trace around the ipsilesional and contralesional hippocampus and hemisphere. Volumes were calculated according to the Cavalieri's principle, where V=ΣA×P×T (Svedin et al., 2007) and hippocampus volume/hemisphere volume ratio was calculated for each hemisphere."}, "[4]": {"system": "newly differentiated neurons", "details": "in vitro; cited from earlier work"}}, "data": [{"substance": "C3a: Purified human C3a peptide (Complement Technologies), C3a receptor agonist, amino acid sequence SEQ ID NO: 1", "values": [{"measurement": "infarct volume", "setting": "[1]", "value": "no effect on infarct volume"}, {"measurement": "cylinder task average scores on last day of testing, C3a vs PBS", "setting": "[2]; long-term study, day 56, Sidak's test P=0.0687", "value": "only a trend toward a difference between groups"}, {"measurement": "cylinder task performance at days 28 and 56 vs day 7", "setting": "[2]; long-term study, Dunnett's test P=0.032 and P=0.0019", "value": "sustained functional improvement"}, {"measurement": "mice that improved affected paw usage between day 7 and day 56", "setting": "[2]; long-term study, paired t-test P=0.009", "value": "8/10"}, {"measurement": "right paw use for body support, course between days 7 and 21", "setting": "[2]; short-term study, C3a days 7-21, n=10 mice/group", "value": "continuous improvement"}, {"measurement": "frequency of right paw use on day 21 vs baseline", "setting": "[2]; short-term study, P=0.062", "value": "did not differ from baseline performance"}, {"measurement": "HI-induced loss of hippocampal tissue", "setting": "[3]", "value": "did not affect HI-induced loss of hippocampal tissue"}, {"measurement": "neurite outgrowth", "setting": "[4]", "value": "increased neurite outgrowth"}]}]}
